Source: US9408393B2, “Bismuth-thiols as antiseptics for agricultural, industrial and other uses” (Microbion Corporation, priority 2010, dated 2016)
Where two headings read alike, the source gives them in different places.

Tests used:
Acinetobacter baumanii = assay: Single-point BisEDT-antibiotic combination FICI; format: cell-based; details: Abau 2594
Escherichia coli = assay: Single-point BisEDT-antibiotic combination FICI; format: cell-based
P. aeruginosa = assay: Checkerboard broth microdilution MIC and FICI; format: cell-based, Pseudomonas aeruginosa; details: Pseudomonas aeruginosa, compound alone, read-out: MIC (μg/mL) Alone
Protocol: (§1) The effects of combinations of microparticulate Bis-EDT and four Bis-EDT analogs prepared as described above, and other agents against representative strains of several Gram-negative pathogenic bacteria were tested. A modification of a common laboratory method was used to determine synergism (FICI≦0.5), enhancement (0.5<FICI≦1.0), antagonism (FICI>4.0) and indifference (1.0<FICI≦4.0) used fractional inhibitory concentrations (FICs) and FIC indices (FICI) (Eliopoulos G and R Moellering. 1991. Antimicrobial combinations. In Antibiotics in Laboratory Medicine, Third Edition, edited by V Lorian. Williams and Wilkins, Baltimore, Md., pp. 432-492; Odds, 2003 J. Antimicrob. Chemother. 52(1):1). The checkerboard technique was used to determine FIC indices and was employed in this study.
(§2) Stock solutions of all test articles were prepared at 40× the final target concentration in the appropriate solvent. […] The final drug concentrations in the FIC assay plates were set to bracket the MIC value of each agent for each test organism, unless the strain was totally resistant to the test agent. […] The test organisms were originally received from clinical sources, or from the American Type Culture Collection. Upon receipt, the isolates were streaked onto Tryptic Soy Agar II (TSA). Colonies were harvested from these plates and a cell suspension was prepared in an appropriate broth growth medium containing cryoprotectant. Aliquots were then frozen at −80° C. The frozen seeds of the organisms to be tested in a given assay were thawed, streaked for isolation onto TSA plates, and incubated at 35° C. All organisms were tested in Mueller Hinton II Broth (Becton Dickinson, Lot No. 9044411). The broth was prepared at 1.05× normal weight/volume to offset the 5% volume of the drugs in the final test plates.
(§3) Minimal Inhibitory Concentration (MIC) values were previously determined using the broth microdilution method for aerobic bacteria (Clinical and Laboratory Standards Institute (CLSI). Methods for Dilution Antimicrobial Susceptibility Tests for Bacteria That Grow Aerobically; Approved Standard—Eighth Edition. CLSI document M07-A8 [ISBN 1-56238-689-1]. Clinical and Laboratory Standards Institute, 940 West Valley Road, Suite 1400, Wayne, Pa. 19087-1898 USA, 2009.).
(§4) FIC values were determined using a broth microdilution method previously described (Sweeney et al., 2003 Antimicrob. Agents Chemother. 47(6):1902-1906). To prepare the test plates, automated liquid handlers (Multidrop 384, Labsystems, Helsinki, Finland; Biomek 2000 and Multimek 96, Beckman Coulter, Fullerton Calif.) were used to conduct serial dilutions and liquid transfers.
(§5) The appropriate wells of standard 96-well microdilution plates (Falcon 3918) were filled with 150 μL of the appropriate solvent in columns 2-12 using the Multidrop 384. Three hundred microliters of each secondary test drug was added to each well in Column 1 of the plates. These plates were used to prepare the drug “mother plates” which provided the serial drug dilutions for the drug combination plates. The Biomek 2000 was used to transfer 150 μL of each secondary drug solution (40×) from the wells in Column 1 of the mother plate and to make eleven 2-fold serial dilutions. Mother plates of Bis-EDT (and analogs) were serial diluted top to bottom by hand, using a multichannel pipette. Two mother plates, one for each secondary drug and one for Bis-EDT (or analogs), were combined to form a “checkerboard” pattern by transfer of equal volumes (using a multi-channel pipette) to the drug combination plate. Row H and Column 12 each contained serial dilutions of one of the agents alone for determination of the MIC.
(§6) The “daughter plates” were loaded with 180 μL of test medium using the Multidrop 384. Then, the Multimek 96 was used to transfer 10 μL of drug solution from each well of the drug combination mother plate to each corresponding well of the daughter plate in a single step.

Bukholderia multivorans = assay: Single-point BisEDT-antibiotic combination FICI; format: cell-based; details: Bmult 5665
Burkholderia cepacia = assay: Single-point BisEDT-antibiotic combination FICI; format: cell-based; details: Bcep 1756
Klebsiella pneumoniae = assay: Single-point BisEDT-antibiotic combination FICI; format: cell-based; details: KP 1231
Pseudomonas aeruginosa = assay: Single-point BisEDT-antibiotic combination FICI; format: cell-based; details: PA 1380
Enterococcus faecalis = assay: Single-point BisEDT-antibiotic combination FICI; format: cell-based; details: E Fc 3121
[1] = test system: Staphylococcus aureus (SA, MRSA); assay: Single-point BisEDT-antibiotic combination FICI; format: cell-based
[2] = test system: Streptococcus pneumoniae (SP, PRSP); assay: Single-point BisEDT-antibiotic combination FICI; details: PRSP 5348
[3] = test system: Gram-negative pathogenic bacteria; assay: Checkerboard broth microdilution MIC and FICI; format: cell-based; details: compound alone; for MIC: Klebsiella pneumoniae, read-out: MIC (μg/mL) Alone
Protocol: as §1, §2, §3, §4, §5, §6

With `C[C@H]1[C@H](NC(=O)/C(=N\OC(C)(C)C(=O)O)c2csc(N)n2)C(=O)N1S(=O)(=O)O` [Aztreonam] the “FICI, single-point BisEDT-antibiotic combination” value (Acinetobacter baumanii) was 0.87, the “FICI, single-point BisEDT-antibiotic combination” value (Escherichia coli; EC 102) was 0.74 and the “FICI, single-point BisEDT-antibiotic combination” value (Escherichia coli; EC 2232) was 1.29. For the same molecule, the MIC (P. aeruginosa; P. aeruginosa 103) was 8 µg/mL, the MIC (P. aeruginosa; P. aeruginosa 1381) was 64 µg/mL and the MIC (P. aeruginosa; P. aeruginosa 1384) was 8 µg/mL. It also gave an MIC (P. aeruginosa; P. aeruginosa 1474) of 8 µg/mL, an MIC (P. aeruginosa; P. aeruginosa 1479) of 8 µg/mL and an MIC (P. aeruginosa; P. aeruginosa 2566) of 16 µg/mL. The MIC (P. aeruginosa; P. aeruginosa 2568) was 8 µg/mL, the “FICI, single-point BisEDT-antibiotic combination” value (Bukholderia multivorans) was 0.96 and the “FICI, single-point BisEDT-antibiotic combination” value (Burkholderia cepacia) was 0.67. For the same molecule, the “FICI, single-point BisEDT-antibiotic combination” value (Klebsiella pneumoniae) was 0.73 and the “FICI, single-point BisEDT-antibiotic combination” value (Pseudomonas aeruginosa) was 0.55.

For `CO/N=C(\C(=O)N[C@@H]1C(=O)N2C(C(=O)O)=C(COC(C)=O)CS[C@H]12)c1csc(N)n1` [Cefotaxime], the “FICI, single-point BisEDT-antibiotic combination” value (Acinetobacter baumanii) was 1.29, the “FICI, single-point BisEDT-antibiotic combination” value (Escherichia coli; EC 102) was 1.37 and the “FICI, single-point BisEDT-antibiotic combination” value (Escherichia coli; EC 2232) was 1.29. For the same molecule, the MIC (P. aeruginosa; P. aeruginosa 103) was 16 µg/mL, the “FICI, single-point BisEDT-antibiotic combination” value (Bukholderia multivorans) was 1.11 and the “FICI, single-point BisEDT-antibiotic combination” value (Enterococcus faecalis) was 0.73. For the same molecule, the “FICI, single-point BisEDT-antibiotic combination” value ([1]; MRSA 773) was 2.23, the “FICI, single-point BisEDT-antibiotic combination” value ([1]; SA 100) was 1.11 and the “FICI, single-point BisEDT-antibiotic combination” value [2] was 1.11. The “FICI, single-point BisEDT-antibiotic combination” value (Burkholderia cepacia) was 1.29, the “FICI, single-point BisEDT-antibiotic combination” value (Klebsiella pneumoniae) was 0.61 and the “FICI, single-point BisEDT-antibiotic combination” value (Pseudomonas aeruginosa) was 0.64. The “MIC (μg/mL) Alone” value ([3]; K. pneumoniae 1355) was 0.12 µg/mL, the “MIC (μg/mL) Alone” value ([3]; K. pneumoniae 2238) was 8 µg/mL and the “MIC (μg/mL) Alone” value ([3]; K. pneumoniae 2549) was 0.06 µg/mL. For the same molecule, the MIC ([3]; K. pneumoniae 1346) was 0.06 µg/mL, the MIC ([3]; K. pneumoniae 1355) was 0.06 µg/mL and the MIC ([3]; K. pneumoniae 2238) was 16 µg/mL. It also gave an MIC ([3]; K. pneumoniae 2546) of 0.25 µg/mL and an MIC ([3]; K. pneumoniae 2549) of 0.12 µg/mL.

`O=C(O)c1cn(C2CC2)c2cc(N3CCNCC3)c(F)cc2c1=O` [Ciprofloxacin] was tested, and the “FICI, single-point BisEDT-antibiotic combination” value (Acinetobacter baumanii) was 1.04, the “FICI, single-point BisEDT-antibiotic combination” value (Escherichia coli; EC 102) was 1.14 and the “FICI, single-point BisEDT-antibiotic combination” value (Bukholderia multivorans) was 2.29. For the same molecule, the “FICI, single-point BisEDT-antibiotic combination” value (Burkholderia cepacia) was 2.23 and the “FICI, single-point BisEDT-antibiotic combination” value (Pseudomonas aeruginosa) was 2.75.

In the case of `CC[C@H]1OC(=O)[C@H](C)[C@@H](O[C@H]2C[C@@](C)(OC)[C@@H](O)[C@H](C)O2)[C@H](C)[C@@H](O[C@@H]2O[C@H](C)C[C@H](N(C)C)[C@H]2O)[C@](C)(O)C[C@@H](C)C(=O)[C@H](C)[C@@H](O)[C@]1(C)O` [Erythromycin], the “FICI, single-point BisEDT-antibiotic combination” value (Enterococcus faecalis) is reported as 0.92, the “FICI, single-point BisEDT-antibiotic combination” value ([1]; MRSA 773) is reported as 0.67 and the “FICI, single-point BisEDT-antibiotic combination” value [2] is reported as 1.03.

For `C[C@H]1COc2c(N3CCN(C)CC3)c(F)cc3c(=O)c(C(=O)O)cn1c23` [Levofloxacin], the “FICI, single-point BisEDT-antibiotic combination” value (Enterococcus faecalis) was 1.08, the “FICI, single-point BisEDT-antibiotic combination” value ([1]; MRSA 773) was 1.11 and the “FICI, single-point BisEDT-antibiotic combination” value ([1]; SA 100) was 1.23. For the same molecule, the “FICI, single-point BisEDT-antibiotic combination” value [2] was 0.70.

In the case of `Cc1onc(-c2ccccc2)c1C(=O)N[C@@H]1C(=O)N2[C@@H]1SC(C)(C)[C@@H]2C(=O)O` [Oxacillin], the “FICI, single-point BisEDT-antibiotic combination” value (Enterococcus faecalis) is reported as 0.92, the “FICI, single-point BisEDT-antibiotic combination” value ([1]; MRSA 773) is reported as 2.28 and the “FICI, single-point BisEDT-antibiotic combination” value [2] is reported as 1.03.

With `C[C@@H]1O[C@@H]1P(=O)(O)O` [Phosphomycin] the “FICI, single-point BisEDT-antibiotic combination” value (Acinetobacter baumanii) was 1.12, the “FICI, single-point BisEDT-antibiotic combination” value (Escherichia coli; EC 2232) was 1.96 and the “FICI, single-point BisEDT-antibiotic combination” value (Bukholderia multivorans) was 1.23. For the same molecule, the “FICI, single-point BisEDT-antibiotic combination” value (Enterococcus faecalis) was 1.23, the “FICI, single-point BisEDT-antibiotic combination” value ([1]; MRSA 773) was 0.61 and the “FICI, single-point BisEDT-antibiotic combination” value [2] was 1.45. For the same molecule, the “FICI, single-point BisEDT-antibiotic combination” value (Burkholderia cepacia) was 1.29, the “FICI, single-point BisEDT-antibiotic combination” value (Klebsiella pneumoniae) was 1.02 and the “FICI, single-point BisEDT-antibiotic combination” value (Pseudomonas aeruginosa) was 1.86.

`CCN1CCN(C(=O)N[C@@H](C(=O)N[C@@H]2C(=O)N3[C@@H]2SC(C)(C)[C@@H]3C(=O)O)c2ccccc2)C(=O)C1=O` [Piperacillin] was tested, and the “FICI, single-point BisEDT-antibiotic combination” value (Acinetobacter baumanii) was 1.12, the “FICI, single-point BisEDT-antibiotic combination” value (Escherichia coli; EC 102) was 0.87 and the “FICI, single-point BisEDT-antibiotic combination” value (Escherichia coli; EC 2232) was 1.29. For the same molecule, the “FICI, single-point BisEDT-antibiotic combination” value (Bukholderia multivorans) was 1.12, the “FICI, single-point BisEDT-antibiotic combination” value (Enterococcus faecalis) was 1.11 and the “FICI, single-point BisEDT-antibiotic combination” value ([1]; MRSA 773) was 1.28. For the same molecule, the “FICI, single-point BisEDT-antibiotic combination” value ([1]; SA 100) was 0.57, the “FICI, single-point BisEDT-antibiotic combination” value [2] was 1.11 and the “FICI, single-point BisEDT-antibiotic combination” value (Burkholderia cepacia) was 1.12. The “FICI, single-point BisEDT-antibiotic combination” value (Klebsiella pneumoniae) was 2.23 and the “FICI, single-point BisEDT-antibiotic combination” value (Pseudomonas aeruginosa) was 0.67.

With `CN(C)[C@@H]1C(O)=C(C(N)=O)C(=O)[C@@]2(O)C(O)=C3C(=O)c4c(O)cccc4[C@@](C)(O)[C@H]3C[C@@H]12` [Tetracycline] the “FICI, single-point BisEDT-antibiotic combination” value (Acinetobacter baumanii) was 1.12, the “FICI, single-point BisEDT-antibiotic combination” value (Escherichia coli; EC 102) was 0.62 and the “FICI, single-point BisEDT-antibiotic combination” value (Escherichia coli; EC 2232) was 0.79. The “FICI, single-point BisEDT-antibiotic combination” value (Bukholderia multivorans) was 1.12, the “FICI, single-point BisEDT-antibiotic combination” value (Enterococcus faecalis) was 0.92 and the “FICI, single-point BisEDT-antibiotic combination” value ([1]; MRSA 773) was 1.23. For the same molecule, the “FICI, single-point BisEDT-antibiotic combination” value ([1]; SA 100) was 0.89, the “FICI, single-point BisEDT-antibiotic combination” value [2] was 0.34 and the “FICI, single-point BisEDT-antibiotic combination” value (Burkholderia cepacia) was 1.96. For the same molecule, the “FICI, single-point BisEDT-antibiotic combination” value (Klebsiella pneumoniae) was 1.29 and the “FICI, single-point BisEDT-antibiotic combination” value (Pseudomonas aeruginosa) was 1.29.
